According to patent US8017612B2, “Piperazine compound and use thereof as a HCV polymerase inhibitor” (priority 2006, dated 2011):

What was measured:
[1] = target: T1, HCV polymerase (NS5B) type 1b (Hepatitis C virus genotype 1b, UniProt P26663); test: Assay of enzyme (HCV polymerase) inhibitory activity, type 1b enzyme; type: biochemical, HCV BK strain (type 1b)
T1 construct: a region encoding NS5B (J Virol 1991 March, 65(3), 1105-13, 544 amino acids after deletion of 47 amino acids on the C-terminal); 6xHis (C); made in house; host or cells: Escherichia coli
Outline: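 Polymerase activity was followed as radiolabelled UTP incorporation by E. coli-expressed, His-tagged NS5B of HCV type 1b lacking its last 47 residues. Conditions: 2 μM UTP, 50 μM other NTPs, Mg2+ buffer at pH 7.5, 25 °C for 60 min. Inhibition relative to compound-free reactions gave IC50.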

[2] = target: T2, HCV polymerase (NS5B) type 1a (Hepatitis C virus genotype 1a, UniProt P26664); test: Assay of enzyme (HCV polymerase) inhibitory activity, type 1a enzyme; type: biochemical, HCV type 1a (cloned from the blood of patients)
T2 construct: made in house; host or cells: Escherichia coli (by the 'similar method' of the 1b enzyme)
Outline: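 IC50 values derive from radioactivity of newly synthesized RNA with versus without test compound. The enzyme was C-terminally truncated type 1a NS5B, 1.5 μg/ml, run 60 min at 25° C with 3H-UTP-labelled nucleotides.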

[3] = HCV polymerase inhibitory activity IC50, 1b, type 1b enzyme
[4] = HCV polymerase inhibitory activity IC50, 1a, type 1a enzyme
[5] = HCV polymerase inhibitory activity (IC50), 1b, type 1b enzyme 0.5 μg/ml, 25° C., 60 min
[6] = HCV polymerase inhibitory activity (IC50), 1a, type 1a enzyme 1.5 μg/ml, 25° C., 60 min

| Structure (SMILES) | IC50 [1, 3] [µM] | IC50 [2, 4] [µM] | IC50 [1, 5] [µM] | IC50 [2, 6] [µM] |
| --- | --- | --- | --- | --- |
| CNc1ncc2sc(N3CCN(S(=O)(=O)c4ccc(OC(F)(F)F)cc4)[C@@H](C(=O)NCc4ccc(OC(F)(F)F)cc4)C3)nc2n1 [Example 952, (R)-4-(5-methylamino-thiazolo[4,5-d]pyrimidin-2-yl)-1-(4-trifluoromethoxy-benzenesulfonyl)-piperazine-2-carboxylic acid 4-trifluoromethoxy-benzylamide] | < 0.1 | < 0.1 | – | – |
| N#Cc1ncc2sc(N3CCN(S(=O)(=O)c4ccc(OC(F)(F)F)cc4)[C@@H](C(=O)NCc4ccc(OC(F)F)cc4)C3)nc2n1 [Example 1036, (R)-4-(5-cyano-thiazolo[4,5-d]pyrimidin-2-yl)-1-(4-trifluoromethoxy-benzenesulfonyl)-piperazine-2-carboxylic acid 4-difluoromethoxy-benzylamide] | < 0.1 | < 0.1 | – | – |
| CCC(F)(F)c1ccc(CNC(=O)[C@H]2CN(c3cnc4cccnc4n3)CCN2S(=O)(=O)c2ccc(OC(F)(F)F)cc2)cc1 [Example 760, (R)-4-pyrido[2,3-b]pyrazin-3-yl-1-(4-trifluoromethoxy-benzenesulfonyl)-piperazine-2-carboxylic acid 4-(1,1-difluoro-propyl)-benzylamide] | < 0.1 | < 0.1 | – | – |
| CCCc1ccc(CNC(=O)[C@H]2CN(c3nc(C)c(C(=O)C(=O)NC)s3)CCN2S(=O)(=O)c2ccc(OC(F)(F)F)cc2)cc1 [Example 859, (R)-4-(4-methyl-5-methylaminooxalyl-thiazol-2-yl)-1-(4-trifluoromethoxy-benzenesulfonyl)-piperazine-2-carboxylic acid 4-propyl-benzylamide] | < 0.1 | 0.1 to 1 | – | – |
| O=C(O)c1cncc2sc(N3CCN(S(=O)(=O)c4ccc(OC(F)(F)F)cc4)[C@@H](C(=O)NCc4ccc(OC(F)(F)F)cc4)C3)nc12 [Example 1104, 2-[(R)-4-(4-trifluoromethoxy-benzenesulfonyl)-3-(4-trifluoromethoxy-benzylcarbamoyl)-piperazin-1-yl]-thiazolo[5,4-c]pyridine-7-carboxylic acid] | < 0.1 | < 0.1 | – | – |
| CC(C)c1ccc(CNC(=O)[C@H]2CN(c3nc([N+](=O)[O-])n[nH]3)CCN2S(=O)(=O)c2ccc(C(F)(F)F)cc2)cc1 [Example 362, (R)-4-(5-nitro-2H-[1,2,4]triazol-3-yl)-1-(4-trifluoromethyl-benzenesulfonyl)-piperazine-2-carboxylic acid 4-isopropyl-benzylamide] | – | – | 0.1 to 1 | > 1 |
| CCOC(=O)c1nnc(NC(=O)N2CCN(S(=O)(=O)c3ccc(OC(F)(F)F)cc3)[C@@H](C(=O)NCc3ccc(C(F)(F)CC)cc3)C2)s1 [Example 477, 5-{[(R)-3-[4-(1,1-difluoro-propyl)-benzylcarbamoyl]-4-(4-trifluoromethoxy-benzenesulfonyl)-piperazine-1-carbonyl]-amino}-[1,3,4]thiadiazole-2-carboxylic acid ethyl ester] | – | – | > 1 | > 1 |
| CCCCc1ccc(CNC(=O)[C@H]2CN(c3cnc4cncc(C(=O)O)c4n3)CCN2S(=O)(=O)c2ccc(CC)cc2)cc1 [Example 855, 2-[(R)-3-(4-butyl-benzylcarbamoyl)-4-(4-ethyl-benzenesulfonyl)-piperazin-1-yl]-pyrido[3,4-b]pyrazine-8-carboxylic acid] | < 0.1 | < 0.1 | – | – |
| CC(C)(C)c1ccc(CNC(=O)[C@H]2CN(C(=O)Cc3ccncc3)CCN2S(=O)(=O)c2ccc(OC(F)(F)F)cc2)cc1 [Example 500, (R)-4-(2-pyridin-4-yl-acetyl)-1-(4-trifluoromethoxy-benzenesulfonyl)-piperazine-2-carboxylic acid 4-tert-butyl-benzylamide] | – | – | < 0.1 | < 0.1 |
| CN(C)c1ccc(CNC(=O)C2CN(C(=O)Cc3ccccc3)CCN2S(=O)(=O)c2ccc(I)cc2)cc1 (stereo not shown) [Example 131, 1-(4-iodo-benzenesulfonyl)-4-phenylacetyl-piperazine-2-carboxylic acid 4-dimethylamino-benzylamide] | – | – | 0.1 to 1 | > 1 |
| CC(C)c1ccc(CNC(=O)[C@H]2CN(C(=O)Cc3nnn[nH]3)CCN2S(=O)(=O)c2ccc(C(F)(F)F)cc2)cc1 [Example 261, (R)-4-(2-1H-tetrazol-5-yl-acetyl)-1-(4-trifluoromethyl-benzenesulfonyl)-piperazine-2-carboxylic acid 4-isopropyl-benzylamide] | – | – | 0.1 to 1 | > 1 |
| CCCc1ccc(CNC(=O)[C@H]2CN(c3cnc4cncnc4n3)CCN2S(=O)(=O)c2ccc(OC(F)(F)F)cc2)cc1 [Example 574, (R)-4-pteridin-7-yl-1-(4-trifluoromethoxy-benzenesulfonyl)-piperazine-2-carboxylic acid 4-propyl-benzylamide] | – | – | < 0.1 | < 0.1 |
| CCCc1ccc(CNC(=O)[C@H]2CN(c3nc(C)c(C(=O)C(=O)O)s3)CCN2S(=O)(=O)c2ccc(OC(F)(F)F)cc2)cc1 [Example 848, {4-methyl-2-[(R)-3-(4-propyl-benzylcarbamoyl)-4-(4-trifluoromethoxy-benzenesulfonyl)-piperazin-1-yl]-thiazol-5-yl}-oxo-acetic acid] | < 0.1 | < 0.1 | – | – |
| O=C(NCc1ccc(OC(F)F)cc1)[C@H]1CN(c2nn3cnnc3s2)CCN1S(=O)(=O)c1ccc(OC(F)(F)F)cc1 [Example 954, (R)-4-[1,2,4]triazolo[3,4-b][1,3,4]thiadiazol-6-yl-1-(4-trifluoromethoxy-benzenesulfonyl)-piperazine-2-carboxylic acid 4-difluoromethoxy-benzylamide] | < 0.1 | < 0.1 | – | – |
| CC(=O)N1CCN(S(=O)(=O)c2ccc(-c3ccc(Cl)cc3)s2)C(C(=O)NCc2ccc(C(F)(F)F)cc2)C1 (stereo not shown) [Example 28, 4-acetyl-1-[5-(4-chloro-phenyl)-thiophene-2-sulfonyl]-piperazine-2-carboxylic acid 4-trifluoromethyl-benzylamide] | – | – | > 1 | > 1 |
| CCC(F)(F)c1ccc(CNC(=O)[C@H]2CN(C(=O)Cn3nnc(C)n3)CCN2S(=O)(=O)c2ccc(OC(F)(F)F)cc2)cc1 [Example 468, (R)-4-[2-(5-methyl-tetrazol-2-yl)-acetyl]-1-(4-trifluoromethoxy-benzenesulfonyl)-piperazine-2-carboxylic acid 4-(1,1-difluoro-propyl)-benzylamide] | – | – | < 0.1 | < 0.1 |
| CC(=O)N1CCN(S(=O)(=O)c2ccc(-c3ccccc3)cc2)C(C(=O)NCc2ccc(C(F)(F)F)cc2)C1 (stereo not shown) [Example 73, 4-acetyl-1-(biphenyl-4-sulfonyl)-piperazine-2-carboxylic acid 4-trifluoromethyl-benzylamide] | – | – | > 1 | > 1 |
| O=C(NCc1ccc(Br)cc1)[C@H]1CN(c2cnc3cncnc3n2)CCN1S(=O)(=O)c1ccc(OC(F)(F)F)cc1 [Example 653, (R)-4-pteridin-7-yl-1-(4-trifluoromethoxy-benzenesulfonyl)-piperazine-2-carboxylic acid 4-bromo-benzylamide] | – | – | < 0.1 | < 0.1 |
| CCC(F)(F)c1ccc(CNC(=O)[C@H]2CN(C(=O)Nc3cncs3)CCN2S(=O)(=O)c2ccc(OC(F)(F)F)cc2)cc1 [Example 607, (R)-4-(4-trifluoromethoxy-benzenesulfonyl)-piperazine-1,3-dicarboxylic acid 3-[4-(1,1-difluoro-propyl)-benzylamide] 1-thiazol-5-ylamide] | – | – | 0.1 to 1 | 0.1 to 1 |
| CCC(F)(F)c1ccc(CNC(=O)[C@H]2CN(c3ccc4cnccc4n3)CCN2S(=O)(=O)c2ccc(OC(F)(F)F)cc2)cc1 [Example 740, (R)-4-[1,6]naphthyridin-2-yl-1-(4-trifluoromethoxy-benzenesulfonyl)-piperazine-2-carboxylic acid 4-(1,1-difluoro-propyl)-benzylamide] | < 0.1 | < 0.1 | – | – |
| Cc1nnc2sc(N3CCN(S(=O)(=O)c4ccc(OC(F)(F)F)cc4)[C@@H](C(=O)NCc4ccc(OC(F)(F)F)cc4)C3)nn2c1=O [Example 986, (R)-4-(3-methyl-4-oxo-4H-[1,3,4]thiadiazolo[2,3-c][1,2,4]triazin-7-yl)-1-(4-trifluoromethoxy-benzenesulfonyl)-piperazine-2-carboxylic acid 4-trifluoromethoxy-benzylamide] | < 0.1 | < 0.1 | – | – |
| CC(=O)N1CCN(S(=O)(=O)c2ccc(C(C)C)cc2)[C@@H](C(=O)NCCCN2CCCC2)C1 [Example 405, (R)-4-acetyl-1-(4-isopropyl-benzenesulfonyl)-piperazine-2-carboxylic acid (3-pyrrolidin-1-yl-propyl)-amide] | – | – | > 1 | > 1 |
| O=C(NCc1ccc(OC(F)F)c(F)c1)[C@H]1CN(c2nc3nc(C(F)(F)F)ncc3s2)CCN1S(=O)(=O)c1ccc(OC(F)(F)F)cc1 [Example 1061, (R)-1-(4-trifluoromethoxy-benzenesulfonyl)-4-(5-trifluoromethyl-thiazolo[4,5-d]pyrimidin-2-yl)-piperazine-2-carboxylic acid 4-difluoromethoxy-3-fluoro-benzylamide] | < 0.1 | < 0.1 | – | – |
